Laboratory results: US20090178149A1, “Polyamine Sensors and Methods of Using the Same” (priority 2005, published 2009)

Molecular target: FLIP-AF1 biosensor (AF1 protein fused to CFP and YFP Venus) (Agrobacterium fabrum, UniProt A9CK51)
Details: excitation 433 nm, emission 485/528 nm; 20 mM sodium phosphate buffer, pH 7.0
Method: A DNA fragment encoding the mature AF1 protein was fused to CFP and the YFP Venus sequence at the N- and C-termini, respectively. Emission spectra and substrate titration curves were obtained by using monochromator microplate reader Safire (Tecan, Austria). Excitation filter was 433/−12 nm, emission filters for CFP and YFP emission were 485/−12, 528 nm/12 nm, respectively. All analyses were done in 20 mM sodium phosphate buffer, pH 7.0.
The FLIP-AF1 biosensor (see SEQ ID Nos. 3 and 4) was titrated against various putrescine concentrations.

Chain of FLIP-AF1 biosensor (AF1 protein fused to CFP and YFP Venus) (A9CK51 27-365): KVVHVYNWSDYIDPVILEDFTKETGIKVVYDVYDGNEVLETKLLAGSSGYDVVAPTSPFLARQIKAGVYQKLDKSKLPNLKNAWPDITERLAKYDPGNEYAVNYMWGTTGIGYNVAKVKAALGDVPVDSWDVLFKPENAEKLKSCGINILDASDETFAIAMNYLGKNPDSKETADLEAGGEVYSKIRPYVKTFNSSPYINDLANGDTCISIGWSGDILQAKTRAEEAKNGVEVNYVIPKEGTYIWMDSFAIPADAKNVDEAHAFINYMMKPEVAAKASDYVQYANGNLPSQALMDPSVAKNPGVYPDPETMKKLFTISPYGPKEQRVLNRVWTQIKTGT

NCCCCN [putrescine, 1,4-diaminobutane]
change in CFP/YFP emission (YFP/CFP ratio) on addition of putrescine: decrease in the YFP/CFP ratio
